From PubChem BioAssay AID1194 (EPA DSSTox, 2008)
Calls of active or inactive are those of the source.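 The calls were made as follows: active = chemicals rated mutagenic or weakly mutagenic in the Salmonella bacterial test by one literature review, or positive overall by another; inconclusive = no clear call, values can overlap the other calls; inactive = the rest.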

These compounds were tested on Salmonella typhimurium Ames mutagenicity, literature compiled (assay: DSSTox (CPDBAS) Carcinogenic Potency Database Salmonella Mutagenicity).
Excerpt: The Carcinogenic Potency Database (CPDB) is a unique and widely used international resource of the results of over 6500 chronic, long-term animal cancer tests on over 1500 chemical substances. The CPDB provides easy access to the bioassay literature, with qualitative and quantitative analyses of both positive and negative experiments that have been published over the past 50 years in the general literature and by the National Cancer Institute/National Toxicology Program. The CPDB standardizes the diverse literature of cancer bioassays that vary widely in protocol, histopathological examination and nomenclature, and in the published author's choices of what information to provide in their papers. Results are reported in the CPDB for tests in rats, mice, hamsters, dogs, and nonhuman primates, and are based on the most positive result among all experiments for each sex-species. The DSSTox CPDBAS (all species) file incorporates data from the CPDB Summary Tables for the full list of over 1500 chemical substances tested in at least one species.
A chemical is classified within the CPDB as mutagenic, i.e. "active", in the Salmonella assay if it was evaluated overall as either "mutagenic" or "weakly mutagenic" by Zeiger [Zeiger, E. (1997) Genotoxicity Database. In: Gold and Zeiger, Eds. Handbook of Carcinogenic Potency and Genotoxicity Databases. Boca Raton, FL: CRC Press, pp. 687-729. http://potency.berkeley.edu/CRCbook.html] or as overall "positive" by the EPA Gene-Tox Program [Kier et al. (1986) Mutat. Res. 168: 69-240].

| Compound | outcome |
| --- | --- |
| CCN(Cc1cccc(S(=O)(=O)O)c1)c1ccc(C(=C2C=CC(=[N+](CC)Cc3cccc(S(=O)(=O)[O-])c3)C=C2)c2ccc(S(=O)(=O)O)cc2)cc1 | inactive; active |
| Nc1ccc(Cl)c(N)c1 | active; inactive |
| Nc1nc(-c2ccc([N+](=O)[O-])o2)cs1 | active |
| CCNc1nc(Cl)nc(NCC)n1 | inactive |
| O=S(=O)(O)c1ccc(N=Nc2c(O)ccc3cc(S(=O)(=O)O)ccc23)cc1 | inactive; active |
| C=CF | active; inactive |
| CCc1nc(N)nc(N)c1-c1ccc(Cl)cc1 | inactive; active |
| NS(=O)(=O)c1cc2c(cc1Cl)NCNS2(=O)=O | inactive; active |
| CN(C)c1ccc(N=NS(=O)(=O)O)cc1 | active; inactive |
| O=C1CCCCC1 | inactive; active |
| Clc1cccc(-c2ccc(Cl)c(Cl)c2Cl)c1Cl | inactive; active |
| Nc1cc(S(=O)(=O)[O-])cc2cc(S(=O)(=O)[O-])c(N=Nc3ccc(-c4ccc(N=Nc5c(S(=O)(=O)[O-])cc6cc(S(=O)(=O)[O-])cc(N)c6c5O)c(O)c4)cc3O)c(O)c12.[Cu].[Cu].[Na+].[Na+].[Na+].[Na+] | inactive; active |
| C/C=N/O | inactive |
| CCN(CC)C(=O)/C(Cl)=C(\C)OP(=O)(OC)OC | active; inactive |
| Cc1ccc2c(c1N)C(=O)c1ccccc1C2=O | active |
| C[C@H]1CCCC(=O)CCC/C=C/c2cc(O)cc(O)c2C(=O)O1 | inactive; active |
| [N-]=[N+]=[N-] | active; inactive |
| NC(=O)c1ccccc1C(N)=O | inactive |
| CCBr | active |
| O=NO | active |
| O=C1C(Cl)=C(Cl)C(=O)C(Cl)=C1Cl | active |
| O=C1CN(/N=C/c2ccc([N+](=O)[O-])o2)C(=O)N1 | active |
| CC(Cl)(Cl)Cl | active |
| Nc1ccc(N)c(Cl)c1 | active; inactive |
| CCOC(=O)N(CC)N=O | active; inactive |
| c1ccc2sc(SSc3nc4ccccc4s3)nc2c1 | active; inactive |

| Compound | outcome |
| --- | --- |
| COc1ccc(N)cc1 | active; inactive |
| C=COC(C)=O | inactive |
| ClC(Cl)C(Cl)Cl | inactive; active |
| O=CC1CO1 (stereo unspecified) | active |
| Clc1nc(Cl)nc(Nc2ccccc2Cl)n1 | inactive |
| C[C@H]1C(=O)O[C@@H]2CCN3CC=C(COC(=O)[C@](C)(O)[C@]1(C)O)[C@H]23 | inactive; active |
| Nc1ccccc1C(=O)OC/C=C/c1ccccc1 | inactive |
| [O]=[Cr](=[O])([OH])[O][Cr](=[O])(=[O])[OH] | active |
| C=CC1CC=CCC1 (stereo unspecified) | inactive |
| C=CC(O)c1ccc(OC)cc1 (stereo unspecified) | inactive; active |
| CCOc1ccc2c(c1)C(C)=CC(C)(C)N2 | inactive; active |
| Cc1c(N)cccc1N | active; inactive |
| O=C(O)CC[N+](=O)[O-] | active; inactive |
| O=[N+]([O-])c1ccc(-c2nc(NCCO)c3ccccc3n2)s1 | active |
| CCOC(=O)CBr | active |
| Cc1c2ccccc2c(C)c2c1ccc1ccccc12 | active |
| O=C/C=C/O | inactive |
| Cc1ccc(N)cc1 | active |
| CCCCN(CCCC)N=O | active; inactive |
| CCNC(=S)NCC | inactive |
| C=CCc1ccc2c(c1)OCO2 | inactive; active |
| CCC[CH2][Sn]([CH2]CCC)([CH2]CCC)[O][Sn]([CH2]CCC)([CH2]CCC)[CH2]CCC | inactive |
| O=NN1CCCCCC1 | active |
| NNC(=O)c1ccncc1 | active; inactive |
| CN(N=O)c1cccnc1 | inactive; active |
| CCOP(=S)(OCC)Oc1ccc([N+](=O)[O-])cc1 | inactive |

| Compound | outcome |
| --- | --- |
| O=C(O)c1[nH]n(-c2ccc(S(=O)(=O)O)cc2)c(=O)c1N=Nc1ccc(S(=O)(=O)O)cc1 | inactive; active |
| OCCO | inactive |
| [Cd+2].[Cl-].[Cl-] | inactive; active |
| [O-][Br+2]([O-])O | active |
| c1ccc(-c2ccccc2)cc1 | inactive |
| CCOP(=S)(OCC)SC1OCCOC1SP(=S)(OCC)OCC (stereo unspecified) | active; inactive |
| CC(C)N(C(=O)SC/C(Cl)=C/Cl)C(C)C | active |
| Clc1ccccc1Cl | inactive |
| C=C(C)C | inactive |
| Cc1ccc(N)cc1Cl | inactive; active |
| ClC/C=C/CCl | active; inactive |
| Nc1ccc(Cl)cc1N | active; inactive |
| IC(I)I | active |
| Cc1cc(=O)[nH]c(=S)[nH]1 | inactive |
| CBr | active |
| c1ccc2[nH]c(-c3cscn3)nc2c1 | active |
| C1CC2OC2CC1C1CO1 (stereo unspecified) | active |
| CCN(C)N=O | active |
| Nc1ccc(O)c(N)c1 | active; inactive |
| CN(N=O)C(N)=O | active |
| CC(C)=CCl | active; inactive |
| O=P(OCCCl)(OCCCl)OCCCl | inactive |
| COc1cc(-c2ccc(N)c(OC)c2)ccc1N | active; inactive |
| F | inactive; active |
| O=[N+]([O-])c1ccc(-c2cscn2)o1 | active; inactive |
| CCCN(CCC)c1c([N+](=O)[O-])cc(C(F)(F)F)cc1[N+](=O)[O-] | active |

| Compound | outcome |
| --- | --- |
| O=C1C(c2[nH]c3ccc(S(=O)(=O)O)cc3c2O)=Nc2ccc(S(=O)(=O)O)cc21 | inactive |
| C=CCN=C=S | active |
| ClCCOCCCl | active |
| O=NN1CCC1 | active; inactive |
| CCc1cc(C(N)=S)ccn1 | inactive; active |
| OCC(O)CCl (stereo unspecified) | active; inactive |
| CC=O | inactive; active |
| COP(=O)(OC)O/C(=C\Cl)c1cc(Cl)c(Cl)cc1Cl | inactive; active |
| O=C1CCc2ccccc2O1 | inactive; active |
| CC(C)(c1ccc(O)cc1)c1ccc(O)cc1 | inactive |
| c1cc(OCC2CO2)cc(OCC2CO2)c1 (stereo unspecified) | active |
| Oc1ccc(Cl)cc1Cc1ccccc1 | inactive; active |
| C=CCc1ccc(OC)cc1 | inactive; active |
| O=C1C2CC=CCC2C(=O)N1SC(Cl)(Cl)Cl (stereo unspecified) | active |
| FC(F)OC(F)(F)C(F)Cl (stereo unspecified) | inactive; active |
| Nc1c(Cl)cc([N+](=O)[O-])cc1Cl | active |
| O=c1ccc(=O)[nH][nH]1 | inactive; active |
| N/C(=N\O)c1ccc([N+](=O)[O-])o1 | active |
| COc1ccc(C(c2ccc(OC)cc2)C(Cl)(Cl)Cl)cc1 | inactive; active |
| CCCCC1C(=O)N(c2ccccc2)N(c2ccccc2)C1=O | inactive |
| COc1cc(N=Nc2ccccc2)ccc1N | active |
| CCCCCCCC(=O)OCC(COC(=O)CCCCCCC)OC(=O)CCCCCCC | active; inactive |
| CCOc1ccc(NC(C)=O)cc1 | active; inactive |
| ClCCCl | active |
| C[C@@H]1Cc2c(Cl)cc(C(=O)N[C@@H](Cc3ccccc3)C(=O)O)c(O)c2C(=O)O1 | inactive |
| CN(C)Nc1nc(-c2ccc([N+](=O)[O-])o2)cs1 | active; inactive |

| Compound | outcome |
| --- | --- |
| ClC(Cl)(Cl)C(Cl)(Cl)Cl | inactive; active |
| ClC(Cl)Br | active |
| CCSCCC(N)C(=O)O (stereo unspecified) | inactive |
| N[C@@H](CCC(=O)O)C(=O)O | inactive; active |
| Cc1ccc(OP(=O)(Oc2ccc(C)cc2)Oc2ccc(C)cc2)cc1 | inactive; active |
| Cc1cccc(N)c1 | inactive |
| CC1=CC(=O)CC(C)(C)C1 | inactive; active |
| Nc1ncn([C@@H]2O[C@H](CO)[C@@H](O)[C@H]2O)c(=O)n1 | active |
| Cn1cnc([N+](=O)[O-])c1Sc1ncnc2nc[nH]c12 | active |
| CC1(C)S[C@@H]2[C@H](NC(=O)[C@H](N)c3ccccc3)C(=O)N2[C@H]1C(=O)O | inactive |
| NC(=S)Nc1ccccc1 | inactive |
| Cc1cc(C(C)(C)C)c(O)c(C(C)(C)C)c1 | inactive |
| NNC(N)=O | inactive |
| CN(N=O)C(=O)N[C@@H]1[C@@H](O)[C@H](O)[C@@H](CO)O[C@@H]1O | active |
| COc1ccc(C(Cl)=C(c2ccc(OC)cc2)c2ccc(OC)cc2)cc1 | inactive |
| CC(=O)C(N=Nc1ccc(-c2ccc(N=NC(C(C)=O)C(=O)Nc3ccccc3)c(Cl)c2)cc1Cl)C(=O)Nc1ccccc1 (stereo unspecified) | inactive |
| CN(N=O)c1ccncc1 | inactive; active |
| Nc1ccc(N)c2c1C(=O)c1c(N)ccc(N)c1C2=O | active |
| NCCCCCCCCCCC(=O)O | inactive; active |
| N#Cc1c(Cl)c(Cl)c(Cl)c(C#N)c1Cl | inactive |
| Nc1ccccc1N | active |
| CN(C)c1ccc(C(=C2C=CC(=[N+](C)C)C=C2)c2ccc(N(C)C)cc2)cc1 | inactive; active |
